“Also recorded” adds a separate entry of the source. Where two headings read alike, the source gives them in different places.
Tests used:
[1] = molecular target: T1, PV RdRP (Poliovirus type 1, UniProt P03300); details: cited from earlier work
[2] = molecular target: T1, PV RdRP; type: biochemical
[3] = molecular target: T2, PV RdRP (3D^pol) (Poliovirus type 1, UniProt P03300); type: biochemical
[4] = molecular target: T2, PV RdRP (3D^pol); type: biochemical; remark: listed apart in the source
[5] = tested on: poliovirus (PV)
[6] = tested on: HeLa S3 cells
[7] = tested on: DENV2 replicon; type: cell-based, dengue virus type 2
[8] = tested on: hepatitis C virus (HCV); details: read-out: IC50, replication of hepatitis C virus; cited from earlier work
[9] = tested on: dengue virus type 2 (DENV2); details: read-out: IC50, dengue virus type 2; cited from earlier work
[10] = tested on: poliovirus (PV); experiment: in vitro; details: human
[11] = in vitro; details: human

T2 sequence (P03300 1749-2209 limits assumed): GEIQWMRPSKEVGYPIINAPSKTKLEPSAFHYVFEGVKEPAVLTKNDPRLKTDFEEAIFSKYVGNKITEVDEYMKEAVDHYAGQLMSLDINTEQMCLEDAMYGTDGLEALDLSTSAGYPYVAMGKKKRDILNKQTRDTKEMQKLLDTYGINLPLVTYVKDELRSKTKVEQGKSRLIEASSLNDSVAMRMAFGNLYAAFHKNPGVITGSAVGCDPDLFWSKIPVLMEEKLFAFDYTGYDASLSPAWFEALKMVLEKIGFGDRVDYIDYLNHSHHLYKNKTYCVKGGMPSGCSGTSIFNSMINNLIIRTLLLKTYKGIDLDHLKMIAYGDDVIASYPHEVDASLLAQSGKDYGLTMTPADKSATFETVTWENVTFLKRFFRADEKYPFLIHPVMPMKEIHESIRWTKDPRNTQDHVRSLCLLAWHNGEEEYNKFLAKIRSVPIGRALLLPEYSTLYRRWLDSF
T1 sequence (P03300 1749-2209 limits assumed): as above

Nc1ncnc2c1ncn2[C@@H]1O[C@H](COP(=O)(O)OP(=O)(O)OP(=O)(O)O)[C@@H](O)[C@H]1O [ATP, adenosine triphosphate]
Efficiency kpol/Kd,app [1]: 650000 M⁻¹ s⁻¹ | kpol [1]: 87 ± 4 s⁻¹

Cc1ncnc2c1ncn2[C@@H]1O[C@H](COP(=O)(O)OP(=O)(O)OP(=O)(O)O)[C@@H](O)[C@H]1O [Compound 8, 6-methyl-9-β-D-ribofuranosylpurine 5'-triphosphate]
Efficiency kpol/Kd,app [2]: 60000 M⁻¹ s⁻¹ | Efficiency relative to natural ATP [2]: only ten-fold lower than natural ATP | Incorporation opposite C by PV RdRP, rate [2]: extremely slow | Substrate of PV RdRP [2]: robust substrates | kpol [2]: 11 ± 0.3 s⁻¹ | Incorporation efficiency across from uracil [3]: comparable to natural ATP | Incorporation opposite adenine and guanine [3]: almost no incorporation | RNA chain termination (extension of RNA oligomers to +4) [3]: neither of these compounds functions as a RNA chain terminator | Inhibition of PV RdRP [4]: neither 8 nor 9 inhibit PV RdRP | kcat compared with natural correct nucleotides [4]: increases in kcat

Cc1nccc2c1ncn2[C@@H]1O[C@H](CO)[C@@H](O)[C@H]1O [Compound 5, 3-deaza-6-methyl-9-β-D-ribofuranosylpurine]
Activity against PV [5]: inactive | Antiviral activity in plaque assays of infectivity [5]: essentially inactive | Cytotoxicity [6]: essentially no cytotoxicity | Inhibition of DENV2 replicon activity [7]: essentially no inhibition

Nc1ncnc2c1ccn2[C@@H]1O[C@H](CO)[C@@H](O)[C@H]1O [Compound 3, tubercidin, reference compound]
Cytotoxic effects to HeLa cells after 7 h [6]: pronounced effects

NC(=O)c1ncn([C@@H]2O[C@H](COP(=O)(O)OP(=O)(O)OP(=O)(O)O)[C@@H](O)[C@H]2O)n1 [RTP, ribavirin triphosphate]
Efficiency kpol/Kd,app [1]: 30 M⁻¹ s⁻¹ | kpol [1]: 0.014 ± 0.001 s⁻¹ | Efficiency relative to 8 or 9 [2]: approximately three orders magnitude lower

Cc1ncnc2c1ccn2[C@@H]1O[C@H](COP(=O)(O)OP(=O)(O)OP(=O)(O)O)[C@@H](O)[C@H]1O [Compound 9, 4-Methyl-7-β-D-ribofuranosylpyrrolo[2,3-d]pyrimidine 5'-triphosphate]
Efficiency kpol/Kd,app [2]: 50000 M⁻¹ s⁻¹ | Efficiency relative to natural ATP [2]: only ten-fold lower than natural ATP | Incorporation opposite C by PV RdRP, rate [2]: extremely slow | Substrate of PV RdRP [2]: robust substrates; also recorded: efficient substrate | kpol [2]: 6 ± 0.5 s⁻¹ | Incorporation efficiency across from uracil [3]: comparable to natural ATP | Incorporation opposite adenine and guanine [3]: almost no incorporation | RNA chain termination (extension of RNA oligomers to +4) [3]: neither of these compounds functions as a RNA chain terminator | Inhibition of PV RdRP [4]: neither 8 nor 9 inhibit PV RdRP | kcat compared with natural correct nucleotides [4]: increases in kcat

C[C@@]1(O)[C@H](O)[C@@H](CO)O[C@H]1n1ccc2c(N)ncnc21 [7-deaza-2'-C-methyladenosine]
IC50 [8]: 0.108 µM

Cc1ccnc2c1ncn2[C@@H]1O[C@H](CO)[C@@H](O)[C@H]1O [Compound 4, 7-Methyl-3-β-D-ribofuranosyl-3H-imidazo[4,5-b]pyridine]
Activity against PV [5]: inactive | Cytotoxic effects to HeLa cells after 7 h [6]: little cytotoxicity | Cytotoxicity [6]: essentially no cytotoxicity | Inhibition of DENV2 replicon activity [7]: essentially no inhibition

C#C[C@@]1(O)[C@H](O)[C@@H](CO)O[C@H]1n1ccc2c(N)ncnc21 [NITD008, 7-deaza-2'-C-ethynyladenosine]
IC50 [9]: 0.64 µM

Cc1ncnc2c1ccn2[C@@H]1O[C@H](CO)[C@@H](O)[C@H]1O [Compound 6, 4-Methyl-7-β-D-ribofuranosylpyrrolo[2,3-d]pyrimidine]
selectivity ratio [10]: > 100 | viability at 100 µM [11]: 33%

Cc1ncnc2c1ncn2[C@@H]1O[C@H](CO)[C@@H](O)[C@H]1O [Compound 2, 6-methyl-9-β-D-ribofuranosylpurine, reference compound]
Cytotoxic effects to HeLa cells after 7 h [6]: pronounced effects | Toxicity relative to 3 (fold less toxic) ([6]; human): ~ 5 fold

COC[C@H]1O[C@@H](n2ccc3c(C)ncnc32)[C@H](O)[C@@H]1O [Compound 7, 4-Methyl-7-(5'-O-methyl-β-D-ribofuranosyl)pyrrolo[2,3-d]pyrimidine]
Antiviral activity in plaque assays of infectivity [5]: eliminated the antiviral effect | Reduction of biological activity on methylation of the 5'-alcohol of 6 [5]: over 1000 fold | Cytotoxic effects to HeLa cells after 7 h [6]: little cytotoxicity | Cytotoxicity [6]: essentially no cytotoxicity | Inhibition of DENV2 replicon activity [7]: essentially no inhibition
